What was measured:
MCF-7 cells = test: Breast Cancer Cell Viability Assays (MCF-7, CellTiter-Glo); assay type: cell-based; conditions: 5 days' compound exposure; for IC50: Homo sapiens, MCF7, 120 h
Outline: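 Percent viability, background-subtracted against untreated wells, was taken from CellTiter-Glo luminescence after 5 days' exposure of MCF-7 cells. Compounds were tested at eleven semilog concentrations, final 0.3–0.000003 μM, in RPMI containing 10% FBS.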

ER-α in MCF-7 cells = target: T1, ER-α in MCF-7 cells (Homo sapiens, UniProt P03372); test: Breast Cancer Cell ER-α In Cell Western Assay (SP1); assay type: cell-based; conditions: 4 or 24 hr post compound addition; for Emax: MCF7, SP1 antibody, read-out: ER-α In Cell Western Assay (SP1) Max Response; for DC50: SP1 antibody, read-out: ER-α In Cell Western Assay (SP1) IC50
T1 construct: endogenous in cells; host or cells: MCF-7
T1 sequence (P03372 1-595): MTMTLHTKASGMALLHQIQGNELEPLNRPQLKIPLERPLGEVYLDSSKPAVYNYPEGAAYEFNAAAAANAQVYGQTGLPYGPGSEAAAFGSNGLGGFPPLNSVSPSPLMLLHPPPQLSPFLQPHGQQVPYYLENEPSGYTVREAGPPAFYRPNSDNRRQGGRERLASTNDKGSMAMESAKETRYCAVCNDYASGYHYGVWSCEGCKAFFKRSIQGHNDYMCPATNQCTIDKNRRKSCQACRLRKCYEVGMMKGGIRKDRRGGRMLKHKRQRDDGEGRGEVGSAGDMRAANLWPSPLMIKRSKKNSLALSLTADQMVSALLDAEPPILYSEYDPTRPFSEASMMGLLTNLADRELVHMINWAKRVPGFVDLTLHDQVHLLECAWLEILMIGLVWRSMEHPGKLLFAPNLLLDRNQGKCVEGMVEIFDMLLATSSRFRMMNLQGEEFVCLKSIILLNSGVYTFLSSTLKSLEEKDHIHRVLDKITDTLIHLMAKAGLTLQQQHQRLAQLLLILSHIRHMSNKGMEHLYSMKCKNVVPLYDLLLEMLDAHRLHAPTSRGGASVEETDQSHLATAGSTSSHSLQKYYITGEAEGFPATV
Outline: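 ER-α levels quantified by in-cell western: SP1 signal normalised to DRAQ5 DNA stain, relative to untreated cells (% ER). Compounds at 0.3–0.000003 μM final, 11-point semilog series, 4 or 24 h exposure of MCF-7 cells grown in charcoal-stripped serum.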

Structure (SMILES) | MCF7 Viability Assay Max Response (MCF-7 cells) | IC50 (MCF-7 cells) [nM] | Emax (ER-α in MCF-7 cells) [%] | DC50 (ER-α in MCF-7 cells) [nM]
O=C(/C=C/c1ccc(/C(=C(\c2ccc(F)cc2Cl)C2CCC2)c2ccc3nccn3c2)cc1)NCCO [Example 187, (E)-3-(4-((E)-2-(2-Chloro-4-fluorophenyl)-2-cyclobutyl-1-(imidazo[1,2-a]pyridin-6-yl)vinyl)phenyl)-N-(2-hydroxyethyl)acrylamide] | ++ (++ = a single % value ≧ 40%) | ≤ 100 | ≥ 40 | ≤ 100
O=C(/C=C/c1ccc(/C(=C(\c2ccccc2)C2CCC2)c2ccc3[nH]nc(F)c3c2)cc1)NCC(O)CO (centres unmarked) [Example 188, (E)-3-(4-((E)-2-Cyclobutyl-1-(3-fluoro-1H-indazol-5-yl)-2-phenylvinyl)phenyl)-N-(2,3-dihydroxypropyl)acrylamide] | ++ (++ = a single % value ≧ 40%) | ≤ 100 | ≥ 40 | ≤ 100
O=C(/C=C/c1ccc(/C(=C(\c2ccccc2)C2CCC2)c2ccc3[nH]nc(F)c3c2)cc1)NC(CO)CO [Example 189, (E)-3-(4-((E)-2-Cyclobutyl-1-(3-fluoro-1H-indazol-5-yl)-2-phenylvinyl)phenyl)-N-(1,3-dihydroxypropan-2-yl)acrylamide] | ++ (++ = a single % value ≧ 40%) | ≤ 100 | ≥ 40 | ≤ 100
CNC(=O)/C=C/c1ccc(/C(=C(\c2ccccc2)C2CCC2)c2ccc3[nH]nc(F)c3c2)cc1 [Example 190, (E)-3-(4-((E)-2-Cyclobutyl-1-(3-fluoro-1H-indazol-5-yl)-2-phenylvinyl)phenyl)-N-methylacrylamide] | ++ (++ = a single % value ≧ 40%) | ≤ 100 | ≥ 40 | ≤ 100
O=C(/C=C/c1ccc(/C(=C(\c2ccccc2)C2CCC2)c2ccc3[nH]nc(F)c3c2)cc1)NCCCl [Example 191, (E)-N-(2-Chloroethyl)-3-(4-((E)-2-cyclobutyl-1-(3-fluoro-1H-indazol-5-yl)-2-phenylvinyl)phenyl)acrylamide] | ++ (++ = a single % value ≧ 40%) | ≤ 100 | ≥ 40 | ≤ 100
OCC1CN=C(/C=C/c2ccc(/C(=C(\c3ccccc3)C3CCC3)c3ccc4[nH]nc(F)c4c3)cc2)O1 (centres unmarked) [Example 192, (2-((E)-4-((E)-2-Cyclobutyl-1-(3-fluoro-1H-indazol-5-yl)-2-phenylvinyl)styryl)-4,5-dihydrooxazol-5-yl)methanol] | ++ (++ = a single % value ≧ 40%) | ≤ 100 | ≥ 40 | ≤ 100
CS(=O)(=O)c1ccccc1/C(=C(\c1ccc(/C=C/C(=O)O)cc1)c1ccc2[nH]nc(F)c2c1)C1CC1 [Example 193, (E)-3-(4-((E)-2-Cyclopropyl-1-(3-fluoro-1H-indazol-5-yl)-2-(2-(methylsulfonyl)phenyl)vinyl)phenyl)acrylic acid] | ++ (++ = a single % value ≧ 40%) | ≤ 100 | ≥ 40 | ≤ 100
CS(=O)(=O)c1ccccc1/C(=C(\c1ccc(/C=C/C(=O)O)cc1)c1ccc2[nH]nc(F)c2c1)C1CCC1 [Example 194, (E)-3-(4-((E)-2-Cyclobutyl-1-(3-fluoro-1H-indazol-5-yl)-2-(2-(methylsulfonyl)phenyl)vinyl)phenyl)acrylic acid] | ++ (++ = a single % value ≧ 40%) | ≤ 100 | ≥ 40 | ≤ 100
Cc1cc(S(C)(=O)=O)ccc1/C(=C(\c1ccc(/C=C/C(=O)O)cc1)c1ccc2[nH]nc(F)c2c1)C1CCC1 [Example 195, (E)-3-(4-((E)-2-Cyclobutyl-1-(3-fluoro-1H-indazol-5-yl)-2-(2-methyl-4-(methylsulfonyl)phenyl)vinyl)phenyl)acrylic acid] | ++ (++ = a single % value ≧ 40%) | ≤ 100 | ≥ 40 | ≤ 100
CS(=O)(=O)c1ccc(/C(=C(\c2ccc(/C=C/C(=O)O)cc2)c2ccc3[nH]nc(F)c3c2)C2CCC2)c(Cl)c1 [Example 196, (E)-3-(4-((E)-2-(2-Chloro-4-(methylsulfonyl)phenyl)-2-cyclobutyl-1-(3-fluoro-1H-indazol-5-yl)vinyl)phenyl)acrylic acid] | ++ (++ = a single % value ≧ 40%) | ≤ 100 | ≥ 40 | ≤ 100
CS(=O)(=O)c1ccccc1/C(=C(\c1ccc(/C=C/C(=O)O)cc1)c1ccc2scnc2c1)C1CCC1 [Example 197, (E)-3-(4-((E)-1-(Benzo[d]thiazol-5-yl)-2-cyclobutyl-2-(2-(methylsulfonyl)phenyl)vinyl)phenyl)acrylic acid] | ++ (++ = a single % value ≧ 40%) | ≤ 100 | ≥ 40 | ≤ 100
Cc1cc([S+](C)[O-])ccc1/C(=C(\c1ccc(/C=C/C(=O)O)cc1)c1ccc2[nH]nc(F)c2c1)C1CCC1 (centres unmarked) [Example 198] | ++ (++ = a single % value ≧ 40%) | ≤ 100 | ≥ 40 | ≤ 100
CC/C(=C(/c1ccc(/C=C/C(=O)O)cc1)c1ccc2c(cnn2CCO)c1)c1ccc(F)cc1Cl [Example 199, (E)-3-(4-((E)-2-(2-Chloro-4-fluorophenyl)-1-(1-(2-hydroxyethyl)-1H-indazol-5-yl)but-1-en-1-yl)phenyl)acrylic acid] | ++ (++ = a single % value ≧ 40%) | ≤ 100 | ≥ 40 | ≤ 100
CC/C(=C(/c1ccc(/C=C/C(=O)O)cc1)c1ccc2nn(CCO)cc2c1)c1ccc(F)cc1Cl [Example 200, (E)-3-(4-((E)-2-(2-Chloro-4-fluorophenyl)-1-(2-(2-hydroxyethyl)-2H-indazol-5-yl)but-1-en-1-yl)phenyl)acrylic acid] | ++ (++ = a single % value ≧ 40%) | > 100 | ≥ 40 | ≤ 100
O=C(O)/C=C/c1ccc(/C(=C(\c2ccccc2)C2CCC2)c2ccc3c(c2)c(F)nn3CCO)cc1 [Example 201, (E)-3-(4-((E)-2-Cyclobutyl-1-(3-fluoro-1-(2-hydroxyethyl)-1H-indazol-5-yl)-2-phenylvinyl)phenyl)acrylic acid] | ++ (++ = a single % value ≧ 40%) | > 100 | ≥ 40 | ≤ 100
O=c1[nH]c(/C=C/c2ccc(/C(=C(\c3ccccc3)C3CCC3)c3ccc4[nH]nc(F)c4c3)cc2)no1 [Example 202, 3-((E)-4-((E)-2-Cyclobutyl-1-(3-fluoro-1H-indazol-5-yl)-2-phenylvinyl)styryl)-1,2,4-oxadiazol-5(4H)-one] | ++ (++ = a single % value ≧ 40%) | ≤ 100 | ≥ 40 | ≤ 100
NNC(=O)/C=C/c1ccc(/C(=C(\c2ccccc2)C2CCC2)c2ccc3[nH]nc(F)c3c2)cc1 [Example 203, (E)-3-(4-((E)-2-Cyclobutyl-1-(3-fluoro-1H-indazol-5-yl)-2-phenylvinyl)phenyl)acrylohydrazide] | ++ (++ = a single % value ≧ 40%) | ≤ 100 | ≥ 40 | ≤ 100

From US9499538B2, “Estrogen receptor modulators and uses thereof” (Seragon Pharmaceuticals, Inc., priority 2012, dated 2016)
